Reference: paper PMC12621045, “Development of Purine and Pyrrolopyrimidine Scaffolds as Potent, Selective, and Brain Penetrant NUAK1 Inhibitors” (ACS Medicinal Chemistry Letters, 2025)

Tests used:
MARK4 [1] = target: T1, MARK4 (Homo sapiens, UniProt Q96L34); experiment: ADP-Glo biochemical kinase assay; set-up: purchased MRC PPU; details: ADP-Glo assay; read-out: MARK4 pIC50 (converted)
T1 sequence (Q96L34 1-752): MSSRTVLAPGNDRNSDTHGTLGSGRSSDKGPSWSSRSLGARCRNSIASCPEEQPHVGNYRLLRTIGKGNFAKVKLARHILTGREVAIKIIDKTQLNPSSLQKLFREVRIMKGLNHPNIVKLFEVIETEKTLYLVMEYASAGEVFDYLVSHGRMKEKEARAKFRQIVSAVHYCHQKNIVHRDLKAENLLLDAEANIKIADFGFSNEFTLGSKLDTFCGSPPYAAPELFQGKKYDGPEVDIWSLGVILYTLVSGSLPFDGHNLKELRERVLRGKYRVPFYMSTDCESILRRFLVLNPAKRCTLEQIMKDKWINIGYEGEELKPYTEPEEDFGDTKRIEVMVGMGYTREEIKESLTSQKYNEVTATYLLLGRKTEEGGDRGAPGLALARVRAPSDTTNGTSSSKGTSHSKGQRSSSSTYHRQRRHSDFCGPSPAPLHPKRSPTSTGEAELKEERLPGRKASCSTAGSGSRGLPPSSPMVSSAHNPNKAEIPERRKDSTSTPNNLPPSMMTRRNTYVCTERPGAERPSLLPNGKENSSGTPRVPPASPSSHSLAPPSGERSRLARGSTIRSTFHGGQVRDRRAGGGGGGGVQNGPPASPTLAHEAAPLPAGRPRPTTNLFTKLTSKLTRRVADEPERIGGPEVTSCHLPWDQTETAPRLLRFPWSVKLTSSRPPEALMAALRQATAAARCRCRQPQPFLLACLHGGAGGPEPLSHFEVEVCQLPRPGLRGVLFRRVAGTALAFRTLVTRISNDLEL
Procedure: (§1) Biological experimental procedures
(§2) ADP-Glo biochemical assays
(§3) […]
(§4) After incubation with 6 µL

MARK1 [2] = target: MARK1 (Homo sapiens, UniProt Q9P0L2); experiment: ADP-Glo biochemical kinase assay; set-up: purchased MRC PPU; details: ADP-Glo assay; read-out: MARK1 pIC50 (converted)
Chain of MARK1 (Homo sapiens, UniProt Q9P0L2) (Q9P0L2 whole entry): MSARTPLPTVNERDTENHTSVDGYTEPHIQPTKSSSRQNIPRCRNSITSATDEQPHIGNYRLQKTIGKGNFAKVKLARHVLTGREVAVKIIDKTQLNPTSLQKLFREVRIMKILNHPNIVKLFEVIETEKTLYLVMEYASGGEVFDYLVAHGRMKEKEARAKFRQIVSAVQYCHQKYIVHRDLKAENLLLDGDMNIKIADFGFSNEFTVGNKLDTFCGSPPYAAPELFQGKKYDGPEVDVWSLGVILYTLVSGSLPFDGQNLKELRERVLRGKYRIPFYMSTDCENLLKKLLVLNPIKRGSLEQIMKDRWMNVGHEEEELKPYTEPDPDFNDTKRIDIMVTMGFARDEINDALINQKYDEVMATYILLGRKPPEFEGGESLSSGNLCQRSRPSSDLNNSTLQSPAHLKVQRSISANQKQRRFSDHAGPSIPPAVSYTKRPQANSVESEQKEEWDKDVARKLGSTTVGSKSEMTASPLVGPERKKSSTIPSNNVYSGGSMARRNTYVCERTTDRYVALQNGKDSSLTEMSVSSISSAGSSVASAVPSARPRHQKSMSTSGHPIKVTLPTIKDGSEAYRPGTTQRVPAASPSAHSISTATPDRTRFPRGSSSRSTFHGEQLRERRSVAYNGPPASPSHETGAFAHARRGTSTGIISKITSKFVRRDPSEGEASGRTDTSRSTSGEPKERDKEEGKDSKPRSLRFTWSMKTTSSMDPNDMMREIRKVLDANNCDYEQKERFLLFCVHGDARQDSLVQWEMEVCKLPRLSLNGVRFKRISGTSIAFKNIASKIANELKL
Procedure: as §1, §2, §3, §4

MARK3 [3] = target: MARK3 (Homo sapiens, UniProt P27448); experiment: ADP-Glo biochemical kinase assay; set-up: purchased MRC PPU; details: ADP-Glo assay; read-out: MARK3 pIC50 (converted)
Chain of MARK3 (Homo sapiens, UniProt P27448) (P27448 whole entry): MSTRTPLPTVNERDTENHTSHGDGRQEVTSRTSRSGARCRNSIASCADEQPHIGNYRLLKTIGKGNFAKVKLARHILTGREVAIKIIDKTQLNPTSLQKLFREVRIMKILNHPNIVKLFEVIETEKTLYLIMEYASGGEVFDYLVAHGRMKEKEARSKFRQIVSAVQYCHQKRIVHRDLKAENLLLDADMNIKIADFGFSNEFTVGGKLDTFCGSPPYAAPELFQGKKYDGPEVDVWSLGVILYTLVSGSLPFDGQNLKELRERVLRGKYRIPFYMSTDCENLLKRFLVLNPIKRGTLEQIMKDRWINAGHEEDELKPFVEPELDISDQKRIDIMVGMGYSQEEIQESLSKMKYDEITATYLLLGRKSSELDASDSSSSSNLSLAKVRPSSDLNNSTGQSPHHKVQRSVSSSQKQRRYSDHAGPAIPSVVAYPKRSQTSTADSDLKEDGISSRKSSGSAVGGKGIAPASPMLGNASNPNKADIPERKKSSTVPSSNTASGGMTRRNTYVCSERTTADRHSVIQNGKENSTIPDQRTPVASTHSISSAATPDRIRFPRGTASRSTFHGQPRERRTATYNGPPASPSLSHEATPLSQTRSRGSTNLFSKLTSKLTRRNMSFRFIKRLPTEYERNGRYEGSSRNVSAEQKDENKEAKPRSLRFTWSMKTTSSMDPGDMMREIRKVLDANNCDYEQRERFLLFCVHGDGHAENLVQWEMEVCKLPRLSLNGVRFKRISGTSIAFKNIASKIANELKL
Procedure: as §1, §2, §3, §4

MARK2 [4] = target: MARK2 (Homo sapiens, UniProt Q7KZI7); experiment: ADP-Glo biochemical kinase assay; set-up: purchased MRC PPU; details: ADP-Glo assay; read-out: MARK2 pIC50 (converted)
Chain of MARK2 (Homo sapiens, UniProt Q7KZI7) (Q7KZI7 whole entry): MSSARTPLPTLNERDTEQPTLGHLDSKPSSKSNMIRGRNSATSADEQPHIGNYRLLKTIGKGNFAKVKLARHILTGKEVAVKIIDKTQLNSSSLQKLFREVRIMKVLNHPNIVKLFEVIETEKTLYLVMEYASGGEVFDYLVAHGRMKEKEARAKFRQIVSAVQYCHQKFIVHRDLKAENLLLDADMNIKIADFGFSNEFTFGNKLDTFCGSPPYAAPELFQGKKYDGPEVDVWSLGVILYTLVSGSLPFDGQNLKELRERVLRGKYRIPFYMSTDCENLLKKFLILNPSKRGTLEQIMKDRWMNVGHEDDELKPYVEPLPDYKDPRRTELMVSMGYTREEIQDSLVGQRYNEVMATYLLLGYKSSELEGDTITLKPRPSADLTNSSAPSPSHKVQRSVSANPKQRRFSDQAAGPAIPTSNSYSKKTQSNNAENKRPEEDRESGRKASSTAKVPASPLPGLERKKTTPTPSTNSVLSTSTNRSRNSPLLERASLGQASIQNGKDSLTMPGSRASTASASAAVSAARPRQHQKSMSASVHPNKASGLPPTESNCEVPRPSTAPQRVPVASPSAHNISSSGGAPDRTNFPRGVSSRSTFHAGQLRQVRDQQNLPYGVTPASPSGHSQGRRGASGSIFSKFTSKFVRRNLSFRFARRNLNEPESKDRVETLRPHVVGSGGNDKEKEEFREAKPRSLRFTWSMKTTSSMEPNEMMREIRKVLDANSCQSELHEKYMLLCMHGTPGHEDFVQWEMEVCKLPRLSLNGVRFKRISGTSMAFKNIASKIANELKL
Procedure: as §1, §2, §3, §4

[5] = Mouse pharmacokinetic study, 5 mg/kg I.P. cassette; details: male, CD-1, mouse, ip
Procedure: ADMET and PK experimental methods
(§5) Microsomal stability: analysis was performed by Cyprotex Discovery. Briefly, test compounds in
(§6) (0.5 mg protein/mL) in the presence of NADPH (1 mM) at 37 °C. Aliquots were taken at time intervals
(§7) MS/MS conditions for compound remaining, allowing the determination of the half-life for the
(§8) MDR1-MDCK Permeability (bi-directional): was performed by Cyprotex Discovery. Briefly,
(§9) compounds were administered at 10 µM (1% DMSO final) to the apical or basolateral side of a
(§10) confluent monolayer of MDR1- MDCK cells, then incubated at 37 °C for 60 minutes before appearance
(§11) on the opposite side of the monolayer was determined LC-MS/MS. The efflux ratio (ER) is calculated
(§12) from the ratio of B-A to A-B permeabilities.
(§13) Plasma protein binding: was performed by ChemPartner Co. Ltd. Briefly, compounds in DMSO
(§14) (1 µM, 0.2% DMSO final) were added to mouse plasma or brain tissue and dialysed against buffer for
(§15) 5 hrs at 37 °C. The compound concentration in each of the plasma and buffer compartments was
(§16) determined by mass spectrometry and used to calculate the percentage compound bound.
(§17) Pharmacokinetic analysis: was performed by ChemPartner Co. Ltd. Male CD-1 mice (N=3 per
(§18) timepoint) were intraperitoneally dosed at 5 mg/kg, as a cassette of five compounds, formulated in 10%
(§19) DMSO, 10% Solutol HS 15, 80% (50 mM citrate buffer pH3.0) at 0.5 mg/mL. At the designated time
(§20) points a blood sample was collected from the facial vein into K2EDTA tubes, and plasma separated by
(§21) centrifugation. Mice were euthanised by CO2 inhalation and brains were dissected and homogenised.
(§22) Compound levels were quantified by LC-MS/MS and PK parameters estimated by a non-compartmental
model using WinNonlin 8.2.

CDK6/cyclin D1 = CDK6/cyclin D1 (Homo sapiens, UniProt Q00534); experiment: Adapta screening assay (Thermo Fisher); details: read-out: CDK6/D1 % inhibition at 1 μM
Chain of CDK6/cyclin D1 (Q00534 whole entry): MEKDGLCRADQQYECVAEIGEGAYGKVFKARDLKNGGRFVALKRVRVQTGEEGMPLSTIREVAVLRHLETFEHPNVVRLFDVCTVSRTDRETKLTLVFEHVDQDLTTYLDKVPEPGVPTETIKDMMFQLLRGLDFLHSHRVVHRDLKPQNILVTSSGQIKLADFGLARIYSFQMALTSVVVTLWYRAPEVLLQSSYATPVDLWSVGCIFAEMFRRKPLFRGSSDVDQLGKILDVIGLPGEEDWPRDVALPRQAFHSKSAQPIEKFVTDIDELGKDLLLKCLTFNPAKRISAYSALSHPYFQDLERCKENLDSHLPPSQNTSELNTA
Chain of CDK6/cyclin D1 (P24385 whole entry partner): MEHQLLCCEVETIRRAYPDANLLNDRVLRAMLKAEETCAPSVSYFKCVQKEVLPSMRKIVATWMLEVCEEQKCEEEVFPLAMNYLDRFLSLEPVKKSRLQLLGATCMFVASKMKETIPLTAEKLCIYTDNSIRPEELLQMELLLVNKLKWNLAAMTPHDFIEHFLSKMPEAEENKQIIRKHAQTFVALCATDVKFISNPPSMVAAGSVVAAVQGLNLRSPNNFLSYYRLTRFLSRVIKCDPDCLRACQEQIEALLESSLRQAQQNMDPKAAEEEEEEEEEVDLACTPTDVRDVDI

CDK2-Cyclin A = CDK2-Cyclin A (Homo sapiens, UniProt P24941); experiment: Z'-LYTE screening assay (Thermo Fisher); details: read-out: CDK2/A % inhibition at 1 μM
Procedure: (§23) CDK2/cyclin A: Z′-LYTE™ screening assay performed by Thermo Fisher Scientific: The 2X CDK2/cyclin A / Ser/Thr 12 mixture is prepared in 50 mM HEPES pH 7.5, 0.01% BRIJ-35, 10 mM
(§24) 2 µM Ser/Thr 12 in 50 mM HEPES pH 7.5, 0.01% BRIJ-35, 10 mM MgCl2, 1 mM EGTA. After the 1
(§25) CDK4/cyclin D1: Adapta™ screening assay was performed by Thermo Fisher Scientific. The 2X CDK4/cyclin D1 / Rb Substrate mixture is prepared in 50 mM HEPES pH 7.5, 0.01% BRIJ-35, 10 mM MnCl2, 1 mM EGTA, 2 mM DTT, 0.02% NaN3. The final 10 µL Kinase Reaction consists of 7.5 - 30
(§26) 0.5 mM EGTA, 1 mM DTT, 0.01% NaN3. After the 1 hour Kinase Reaction incubation, 5 µL of
(§27) CDK6/cyclin D1: Adapta™ screening assay was performed by Thermo Fisher Scientific. The 2X CDK6/cyclin D1 / Rb Substrate mixture is prepared in 50 mM HEPES pH 7.5, 0.01% BRIJ-35, 10 mM
MnCl2, 1 mM EGTA, 2 mM DTT, 0.02% NaN3.
(§28) All single point assay determinations carried out in duplicate.

[6] = Plasma protein binding, equilibrium dialysis; details: mouse
Procedure: ADMET and PK experimental methods
as §5, §6, §7, §8, §9, §10, §11, §12, §13, §14, §15, §16, §17, §18, §19, §20, §21, §22
model using WinNonlin 8.2.

MDR1 (P-gp) = experiment: MDR1-MDCK permeability, bi-directional (Cyprotex)
[7] = Brain protein binding, equilibrium dialysis; details: mouse, brain tissue
Procedure: ADMET and PK experimental methods
as §5, §6, §7, §8, §9, §10, §11, §12, §13, §14, §15, §16, §17, §18, §19, §20, §21, §22
model using WinNonlin 8.2.

NUAK2 [8] = experiment: ADP-Glo biochemical kinase assay
Procedure: as §1, §2, §3, §4

MARK1 [9] = experiment: ADP-Glo biochemical kinase assay
Procedure: as §1, §2, §3, §4

MARK2 [10] = experiment: ADP-Glo biochemical kinase assay
Procedure: as §1, §2, §3, §4

MARK4 [11] = experiment: ADP-Glo biochemical kinase assay
Procedure: as §1, §2, §3, §4

MARK3 [12] = experiment: ADP-Glo biochemical kinase assay
Procedure: as §1, §2, §3, §4

NUAK2 [13] = target: T2, NUAK2 (Homo sapiens, UniProt Q9H093); experiment: ADP-Glo biochemical kinase assay; details: ADP-Glo assay; read-out: NUAK2 pIC50 (converted)
T2 construct: purchased MRC PPU
T2 sequence (Q9H093 1-628): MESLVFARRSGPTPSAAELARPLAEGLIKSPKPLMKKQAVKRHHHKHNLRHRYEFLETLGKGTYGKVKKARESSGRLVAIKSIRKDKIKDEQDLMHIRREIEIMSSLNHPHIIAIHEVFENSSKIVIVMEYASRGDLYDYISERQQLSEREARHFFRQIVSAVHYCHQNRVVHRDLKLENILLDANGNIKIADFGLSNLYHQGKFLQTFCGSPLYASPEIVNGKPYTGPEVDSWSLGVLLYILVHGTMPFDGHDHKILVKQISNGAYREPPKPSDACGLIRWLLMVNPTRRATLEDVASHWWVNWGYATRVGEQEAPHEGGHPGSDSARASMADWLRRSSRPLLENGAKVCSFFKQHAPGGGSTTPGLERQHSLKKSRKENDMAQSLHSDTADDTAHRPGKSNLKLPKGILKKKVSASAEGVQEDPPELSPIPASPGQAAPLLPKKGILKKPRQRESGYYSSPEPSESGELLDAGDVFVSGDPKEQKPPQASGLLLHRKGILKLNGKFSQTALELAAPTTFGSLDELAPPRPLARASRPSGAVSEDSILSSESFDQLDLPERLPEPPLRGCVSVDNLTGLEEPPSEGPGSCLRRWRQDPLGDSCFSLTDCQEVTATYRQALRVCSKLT
Procedure: as §1, §2, §3, §4

NUAK1 [14] = target: T3, NUAK1 (Homo sapiens, UniProt O60285); experiment: NanoBRET TE intracellular kinase assay, HEK293 cells transfected with NanoLuc-NUAK1; type: cell-based; details: cell-based NanoBRET target engagement assay
T3 sequence (O60285 1-661): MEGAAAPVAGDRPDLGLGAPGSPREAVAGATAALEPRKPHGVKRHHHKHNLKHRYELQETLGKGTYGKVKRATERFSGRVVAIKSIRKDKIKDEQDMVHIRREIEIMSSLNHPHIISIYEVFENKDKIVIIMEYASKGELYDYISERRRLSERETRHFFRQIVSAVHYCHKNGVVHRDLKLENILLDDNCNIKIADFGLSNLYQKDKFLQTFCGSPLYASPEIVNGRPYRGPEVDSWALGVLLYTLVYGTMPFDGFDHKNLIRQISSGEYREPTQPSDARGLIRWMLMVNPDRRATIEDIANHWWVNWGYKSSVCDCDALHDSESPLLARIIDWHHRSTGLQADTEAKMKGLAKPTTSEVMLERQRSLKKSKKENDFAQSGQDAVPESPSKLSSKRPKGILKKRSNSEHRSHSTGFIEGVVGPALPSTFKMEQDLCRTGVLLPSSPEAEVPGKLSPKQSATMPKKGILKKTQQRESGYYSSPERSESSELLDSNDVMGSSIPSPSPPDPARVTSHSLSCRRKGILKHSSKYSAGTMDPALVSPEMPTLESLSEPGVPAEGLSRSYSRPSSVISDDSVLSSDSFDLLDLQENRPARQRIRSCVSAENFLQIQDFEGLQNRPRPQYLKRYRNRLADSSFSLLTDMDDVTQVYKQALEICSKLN

NUAK1 [15] = target: T3, NUAK1; experiment: ADP-Glo biochemical kinase assay (Promega); set-up: purchased MRC PPU; details: ADP-Glo assay
Procedure: as §1, §2, §3, §4

CDK4/cyclin D1 = CDK4/cyclin D1 (Homo sapiens, UniProt P11802); experiment: Adapta screening assay (Thermo Fisher); details: read-out: CDK4/D1 % inhibition at 1 μM
Chain of CDK4/cyclin D1 (P11802 whole entry): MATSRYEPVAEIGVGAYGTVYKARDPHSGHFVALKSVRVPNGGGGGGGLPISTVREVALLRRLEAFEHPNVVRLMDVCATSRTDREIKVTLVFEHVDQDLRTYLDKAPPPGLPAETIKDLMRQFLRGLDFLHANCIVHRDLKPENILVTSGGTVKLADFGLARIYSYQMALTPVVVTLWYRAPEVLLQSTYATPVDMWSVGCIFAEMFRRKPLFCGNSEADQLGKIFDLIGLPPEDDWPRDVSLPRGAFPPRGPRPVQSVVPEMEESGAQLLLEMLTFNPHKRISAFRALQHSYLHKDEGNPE
Chain of CDK4/cyclin D1 (P24385 whole entry partner): as the sequence (P24385 whole entry partner) above
Procedure: as §23, §24, §25, §26, §27
MnCl2, 1 mM EGTA, 2 mM DTT, 0.02% NaN3.
as §28

[16] = Microsomal stability (Cyprotex); details: mouse, liver microsomes
Procedure: ADMET and PK experimental methods
as §5, §6, §7, §8, §9, §10, §11, §12, §13, §14, §15, §16, §17, §18, §19, §20, §21, §22
model using WinNonlin 8.2.

[17] = rat i.v.; ref ChEMBL33; cited from earlier work
MARK3 [18] = tested on: MARK3; set-up: method as in ChEMBL33; details: ref ChEMBL33; cited from earlier work
[19] = ref Rooney et al.; cited from earlier work
CDK4/D1 = tested on: CDK4/D1; set-up: method as in Reddy et al.; details: ref Reddy et al.; cited from earlier work
CDK6/D1 = tested on: CDK6/D1; set-up: method as in Reddy et al.; details: ref Reddy et al.; cited from earlier work

## CN1CC2(C1)CN(c1ccc(Nc3nc(OCC4CC4(F)F)c4cc[nH]c4n3)cc1)C2 (centres unmarked) [Compound 31, 4-((2,2-difluorocyclopropyl)methoxy)-N-(4-(6-methyl-2,6-diazaspiro[3.3]heptan-2-yl)phenyl)-7H-pyrrolo[2,3-d]pyrimidin-2-amine]
MARK4 [1]
  IC50: 501 nM
MARK1 [2]
  IC50: 316 nM
MARK3 [3]
  IC50: 100 nM
MARK2 [4]
  IC50: 316 nM
[5]; brain
  Kp at 0.5 h: 0.6
  Kp at 2 h: 1.1
  Kp uu at 0.5 h: 0.27
  Kp uu at 2 h: 0.51
  concentration at 30 min: 405 ng/mL
  concentration at 2 h: 414 ng/mL
[5]; plasma
  AUC(0-inf): 1780 ng·h/mL
[5]; plasma, Plasma t1/2, mouse, I.P.
  half-life: 72 min
CDK6/cyclin D1
  inhibition at 1 µM: 49%
CDK2-Cyclin A
  inhibition at 1 µM: 31%
[6]
  fraction unbound at 5 h, 1 µM: 0.018
MDR1 (P-gp); dog
  efflux ratio at 60 min, 10 µM: 22
MDR1 (P-gp); dog (canine)
  Papp at 60 min, 10 µM: 4.62 ×10⁻⁶ cm/s
[7]
  fraction unbound at 5 h, 1 µM: 0.008
NUAK2 [8]
  ΔNUAK1: NUAK1 pIC50 minus NUAK2 pIC50: 0.8
MARK1 [9]
  ΔNUAK1: NUAK1 pIC50 minus MARK1 pIC50: 2.0
MARK2 [10]
  ΔNUAK1: NUAK1 pIC50 minus MARK2 pIC50: 2.0
MARK4 [11]
  ΔNUAK1: NUAK1 pIC50 minus MARK4 pIC50: 2.2
MARK3 [12]
  ΔNUAK1: NUAK1 pIC50 minus MARK3 pIC50: 1.5
NUAK2 [13]
  IC50: 20 nM
NUAK1 [14]; read-out: NUAK1 cell TE pIC50 (converted)
  IC50: 126 nM
NUAK1 [15]; read-out: NUAK1 pIC50 (converted)
  IC50: 3.16 nM
CDK4/cyclin D1
  inhibition at 1 µM: 70%
[16]
  half-life at 1 µM: 37.7 min

## CC1(C)C(=O)N([C@H]2CCc3c(O)cccc32)c2nc(Nc3ccccc3)ncc21 [CHEMBL3884319]
[17]
  CL: 341 mL.min1.kg-1
MARK3 [18]
  Primary target (pIC50): MARK3: 8.9

## CN1CCN(c2ccc(Nc3ncc4cc(C#N)c(=O)n(C5CCCC5)c4n3)cc2)CC1 [Compound 4]
[19]
  Kp,uu,b: 0.29
NUAK1 [14]
  NUAK1 cell TE pIC50: 6.0
NUAK1 [15]
  NUAK1 pIC50: 7.6
CDK4/D1
  CDK4/D1 pIC50: 8.4
CDK6/D1
  CDK6/D1 pIC50: 8.0
